“And” between values parts separate entries of the source, which are not always exact repeats. Identical values can stand only once.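 Test compounds were applied to cells in 96-well plates for 48 hours at 5 doses. Abbreviation: GI50, concentration required for 50% inhibition of growth. Definition used: TGI = concentration required for complete inhibition of growth.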 Some results are limits rather than exact numbers.

Common to all, as to test: DTP human tumour cell line panel, 48 h
Experiment [1] has as its system DU-145 prostate.
Experiment [2] concerns 786-0 renal.
Experiment [3] relates to SR leukemia.
The test system of experiment [4] is U251 CNS.
Experiment [5] has as its system SF-295 CNS.
The test system of experiment [6] is MDA-MB-435.
The test system of experiment [7] is HT29 colon.
Experiment [8] has as its system HCC-2998 colon.
In experiment [9] the test system is OVCAR-8 ovarian.
For experiment [10], the system named is SK-MEL-2 melanoma.

As a reminder, the GI50 is the concentration giving 50% growth inhibition. As usually defined, the TGI is the concentration giving total growth inhibition. Higher therefore signals less potent growth arrest. For the compound `CCCCCCCCCCCCOC1C(C(CC(=O)N2CCN(c3cccc(C(F)(F)F)c3)CC2)NS(=O)(=O)c2cc(Cl)cc(Cl)c2)OC2OC(C)(C)OC21` (configuration not stated), the GI50 in experiment [1], in experiment [2], in [3], in experiment [4], in experiment [5] and in [6] was greater than 100 µM throughout. Further, the GI50 in experiment [7], in experiment [8], in experiment [9] and in experiment [10] was greater than 100 µM throughout. Moreover, the TGI in experiment [1], in [2], in [3], in [4], in experiment [5] and in [6] was greater than 100 µM each time. Also, the TGI in experiment [7], in experiment [8], in experiment [9] and in experiment [10] was greater than 100 µM each time.

Regarding `O=c1c2ccccc2c2ccccc2c(=O)n1Cc1ccc2c(c1)OCO2`, the TGI was greater than 100 µM in [1]; greater than 100 µM in [2]; 84.5 µM in experiment [3]; greater than 100 µM in experiment [4]; greater than 100 µM in experiment [5]; 55.7 µM in experiment [6]. The TGI in [7] was greater than 100 µM; in experiment [8] it was greater than 100 µM; in [9] it was greater than 100 µM; in experiment [10], greater than 80.2 µM.

Turning to `O=C(CCC(C(=O)c1ccccc1)c1ccccc1)c1ccccc1` (configuration not stated), the GI50 in experiment [1] was 30.1 µM; in [2] it was 49.4 µM; in experiment [3], 4.46 µM; in [4], 13.4 µM; in experiment [5] it was 6.83 µM; in experiment [6] it was 2.01 µM. For the same compound, the GI50 was 4.21 µM in [7], 29.7 µM in [8], 21.6 µM in experiment [9] and 7.07 µM in experiment [10]. The TGI is greater than 100 µM in experiment [1]; greater than 100 µM in experiment [2]; greater than 100 µM in experiment [3]; greater than 100 µM in experiment [4]; greater than 100 µM in experiment [5]; 6.03 µM in experiment [6]. Also, the TGI in experiment [7] was greater than 100 µM; in experiment [8], greater than 100 µM; in [9], greater than 100 µM; in experiment [10] it was 46.7 µM.

Take `COc1ccc(OC)c(-c2cc(=O)c3c(OC)c(OC)c(OC)c(OC)c3o2)c1`: the TGI in [1] is greater than 100 µM; in experiment [2], 92.2 µM; in experiment [3], greater than 100 µM; in experiment [4] it was greater than 100 µM; in [5], 48.4 µM; in experiment [6], greater than 100 µM. In addition, the total growth inhibition concentration (TGI) was greater than 100 µM in experiment [7], 92.1 µM in experiment [8], greater than 100 µM in [9] and 49.3 µM in [10].

Consider `CCN(CC)CCNc1cc(-c2cccc(OC(F)(F)F)c2)nc2ccc(N3CCCC3)cc12`, for which the GI50 is 1.85 µM and 2.36 µM and 3.59 µM in experiment [1]; 1.66 µM and 1.67 µM and 1.59 µM in experiment [2]; 0.418 µM and 0.462 µM in experiment [3]; 1.54 µM and 1.55 µM and 1.71 µM in [4]; 1.63 µM and 1.73 µM and 1.92 µM in experiment [5]; 1.47 µM and 1.43 µM and 1.74 µM in experiment [6]. Further, the GI50 in [7] was 1.7 µM and 1.6 µM and 1.76 µM; in experiment [8], 1.34 µM and 1.28 µM and 1.9 µM; in experiment [9] it was 1.94 µM and 1.76 µM and 1.99 µM; in experiment [10], 1.61 µM and 1.87 µM and 1.9 µM. Besides, the TGI is 4.1 µM and 5.44 µM and 12.8 µM in experiment [1]; 3.19 µM and 3.23 µM in [2]; 2.12 µM and 2.26 µM in experiment [3]; 3.1 µM and 2.95 µM and 3.35 µM in experiment [4]; 3.23 µM and 3.36 µM and 3.79 µM in experiment [5]; 2.83 µM and 2.85 µM and 3.3 µM in experiment [6]. The TGI in [7] was 3.47 µM and 3.33 µM and 3.73 µM; in [8] it was 2.72 µM and 2.6 µM and 4.06 µM; in experiment [9], 4.04 µM and 3.36 µM and 4.24 µM; in experiment [10], 3.3 µM and 3.49 µM and 3.61 µM.

Consider `N#CS.N=C=S.N=C=S.[Cu+2].[NH2-].[NH2-].[NH2-].[NH2-].c1ccc2ncccc2c1`, for which the GI50 in experiment [1] was 17.3 µM; in [2], greater than 100 µM; in experiment [3], greater than 100 µM; in experiment [4], 20.1 µM; in [5], 17.7 µM; in [6], 19.4 µM. Besides, the GI50 is 60.7 µM in [7], 83.9 µM in [8], greater than 100 µM in experiment [9] and greater than 100 µM in [10]. In addition, the TGI in [1] is 36.1 µM; in [2], greater than 100 µM; in experiment [3], greater than 100 µM; in [4] it was 38.1 µM; in experiment [5] it was 37 µM; in experiment [6] it was 41.3 µM. Moreover, the TGI in [7], in [8], in experiment [9] and in experiment [10] was greater than 100 µM each time.

In the case of `COc1ccc2c(c1OC)OCC(CN(C)C)C2=O` (configuration not stated), the TGI was 34.5 µM in experiment [1]; 25.9 µM in experiment [2]; 10.5 µM in experiment [3]; 34.1 µM in [4]; greater than 100 µM in [5]; 34.3 µM in [6]. Also, the TGI was found to be 40.1 µM in [7], 33.7 µM in [8], 50.2 µM in experiment [9] and 30.5 µM in experiment [10].

Regarding `NC1=NCCN1CC(=O)O`, the GI50 in experiment [1], in experiment [2], in experiment [3], in [4], in experiment [6] and in experiment [7] was greater than 10000 µM throughout. Further, the GI50 in experiment [8], in [9] and in experiment [10] was greater than 10000 µM throughout. Also, the TGI in experiment [1], in experiment [2], in [3], in [4], in [5] and in [6] was greater than 10000 µM in each case. Also, the TGI in [7], in [8], in [9] and in experiment [10] was greater than 10000 µM each time.

Turning to `CCCCCCCCCCCCCCCCOP(=O)(O)OP(=O)(O)OCC1OC(n2ccc(N)nc2=O)C(O)C1O` (configuration not stated), the TGI in [1], in [2], in experiment [3], in [4], in [5] and in [6] was greater than 100 µM throughout. Besides, the TGI in experiment [7], in [8], in [9] and in experiment [10] was greater than 100 µM each time. The GI50 was > 100 µM and 26.2 µM in experiment [2]; > 100 µM and 46 µM in [5]; > 100 µM and 36.8 µM in experiment [8].

For the origin of these results see PubChem BioAssay (NCI).
